Data taken from patent US20130303763A1, “METHODS AND COMPOSITIONS FOR THE TREATMENT OF NECROTIZING ENTEROCOLITIS” (priority 2012, published 2013).

System: mice suffering from NEC
Assay: Treatment of necrotizing enterocolitis (NEC) induced in mice by a 5 day protocol of formula (gavage) feeding and hypoxia
Type: in vivo, mice (C57BL/6)
Procedure: Ten day-old breastfed SERT knockout mice, TPH1 knockout mice and wildtype littermate mice (C57BL/6) were subjected to a 5 day protocol of formula (gavage) feeding and hypoxia. This protocol reproducibly induces NEC in mice. Weights of all groups were monitored daily and cytokines were analyzed in the distal ileum at day 5. This experiment was then repeated using two groups of mice that received 100 mg/kg or 200 mg/kg of (2S)-ethyl 2-amino-3-(4-(2-amino-6-(2,2,2-trifluoro-1-(3′-fluoro-[1,1′-biphenyl]-4-yl)ethoxy)pyrimidin-4-yl)phenyl)propanoate (LP-920540), and a control group that received vehicle.

CCOC(=O)[C@@H](N)Cc1ccc(-c2cc(OC(c3ccc(-c4cccc(F)c4)cc3)C(F)(F)F)nc(N)n2)cc1 (stereo partly drawn) [LP-920540, (2S)-ethyl 2-amino-3-(4-(2-amino-6-(2,2,2-trifluoro-1-(3′-fluoro-[1,1′-biphenyl]-4-yl)ethoxy)pyrimidin-4-yl)phenyl)propanoate]
weight loss versus vehicle-treated animals (FIG. 1) (100 or 200 mg/kg, five days of the experiment): lost significantly less weight
mortality (FIG. 2) (100 or 200 mg/kg, vehicle treated animals 50%): 5-10%
levels of transcripts encoding IL-6 versus vehicle-treated mice (distal ileum at day 5): significantly less upregulated
levels of transcripts encoding IL-18 versus vehicle-treated mice (distal ileum at day 5): significantly less upregulated
